Reference: patent US20240173295A1, “A STABLE, EMULSION-FORMING LIQUID COMPOSITION COMPRISING AMINO ACIDS” (Brain Luxury Inc., priority 2021, published 2024)
Read-outs that look alike come from different tables or passages of the source. Marks after values point to notes of the source that are not given here.

Test: Chemical stability of liquid composition on storage
Assay type: physicochemical
Method: The chemical stability of a disclosed liquid composition stored at 6° C. or 22° C. was evaluated at 2 months and three months. The microbial stability and shelf life was also evaluated. A liquid composition having a pH of about 3.7 was subjected to high pressure processing at 6000 bar for two cycles of 5 minutes.

[1] = stored at 6° C. or 22° C., adjusted for slightly lower oil volume in 3 months preparation (55 ml vs 60 ml)

Molecule	amount in liquid composition at 2 Months (chemical stability) (stored at 6° C. or 22° C.)	amount in liquid composition at 3 Months (chemical stability) (stored at 6° C. or 22° C.)	amount in liquid composition at 2 Months (chemical stability)	amount in liquid composition at 3 Months (chemical stability)	amount in liquid composition at 3 Months (chemical stability) [1]
NCC(=O)O [Glycine]	3319 mg/60 mL	3303 mg/60 mL			
N[C@@H](Cc1c[nH]c2ccccc12)C(=O)O [L-Tryptophan]	420 mg/60 mL	426 mg/60 mL			
Medium chain triglycerides			2209 mg/60 mL	2407* mg/60 mL	
docosapenataenoic acid	632 mg/60 mL				587* mg/60 mL
[Na] [Sodium]	1.23 mg/60 mL	0.6 mg/60 mL			
CC/C=C\C/C=C\C/C=C\CCCCCCCC(=O)O [alpha linoleic acid]			1026 mg/60 mL	1025* mg/60 mL	
Vitamin D	25 mcg/60 mL				26* mcg/60 mL
O=C1O[C@H]([C@@H](O)CO)C(O)=C1O [Vitamin C]	326 mg/60 mL	245 mg/60 mL			
[Zn] [Zinc]	6 mg/60 mL	5.7 mg/60 mL			
CC/C=C\C/C=C\C/C=C\C/C=C\C/C=C\CCCC(=O)O [eicosapentaenoic acid]	319 mg/60 mL				297* mg/60 mL
[Mg+2] [Magnesium]			15 mg/60 mL	27.8 mg/60 mL	
Vitamin E		2.2 mg/60 mL			
